Reference: patent US20230382863A1, “MEK INHIBITORS AND USES THEREOF” (Ikena Oncology, Inc., priority 2022, published 2023)

Experiments:
Pharmacokinetics in rat = format: in vivo; settings: plasma, IV, 0.2 mg/kg
[1] = Cassette pharmacokinetics studies in mice; format: in vivo; settings: male, Balb/c, plasma, Mouse
Summary of the method: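 Male Balb/c mice (3 per route) received cassette doses in 5% DMSO/95% PEG400 at 2 mg/kg IV (1 mg/kg where IV*) or 5 mg/kg PO. Plasma sampled to 24 h, acetonitrile-precipitated with internal standard, quantified by HPLC/MS/MS against 0.5-1,000 ng/mL standards.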

uMEK/BRAF = uMEK/BRAF (Homo sapiens (Human), UniProt Q02750); assay: MEK-RAF Binding Assay (uMEK/BRAF HTRF)
Sequence of uMEK/BRAF (Q02750 whole entry): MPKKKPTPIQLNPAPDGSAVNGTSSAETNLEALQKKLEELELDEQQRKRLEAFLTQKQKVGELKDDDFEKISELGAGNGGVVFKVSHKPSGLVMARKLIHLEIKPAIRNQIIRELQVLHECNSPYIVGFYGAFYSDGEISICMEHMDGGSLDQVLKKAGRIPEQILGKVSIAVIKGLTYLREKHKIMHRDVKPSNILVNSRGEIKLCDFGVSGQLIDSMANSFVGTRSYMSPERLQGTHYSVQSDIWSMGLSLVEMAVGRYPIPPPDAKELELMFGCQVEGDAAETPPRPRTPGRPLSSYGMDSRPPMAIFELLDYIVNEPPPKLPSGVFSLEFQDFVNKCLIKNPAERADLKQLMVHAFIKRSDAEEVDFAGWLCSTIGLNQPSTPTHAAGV

MEK1-CRAF complex = MEK1-CRAF complex (Homo sapiens (Human), UniProt Q02750); assay: Stabilization of MEK1-CRAF complex assay (AlphaLISA); format: binding
Sequence of MEK1-CRAF complex (Q02750 whole entry, looked up): as the sequence (Q02750 whole entry) above
Sequence of MEK1-CRAF complex (P04049 whole entry partner, looked up): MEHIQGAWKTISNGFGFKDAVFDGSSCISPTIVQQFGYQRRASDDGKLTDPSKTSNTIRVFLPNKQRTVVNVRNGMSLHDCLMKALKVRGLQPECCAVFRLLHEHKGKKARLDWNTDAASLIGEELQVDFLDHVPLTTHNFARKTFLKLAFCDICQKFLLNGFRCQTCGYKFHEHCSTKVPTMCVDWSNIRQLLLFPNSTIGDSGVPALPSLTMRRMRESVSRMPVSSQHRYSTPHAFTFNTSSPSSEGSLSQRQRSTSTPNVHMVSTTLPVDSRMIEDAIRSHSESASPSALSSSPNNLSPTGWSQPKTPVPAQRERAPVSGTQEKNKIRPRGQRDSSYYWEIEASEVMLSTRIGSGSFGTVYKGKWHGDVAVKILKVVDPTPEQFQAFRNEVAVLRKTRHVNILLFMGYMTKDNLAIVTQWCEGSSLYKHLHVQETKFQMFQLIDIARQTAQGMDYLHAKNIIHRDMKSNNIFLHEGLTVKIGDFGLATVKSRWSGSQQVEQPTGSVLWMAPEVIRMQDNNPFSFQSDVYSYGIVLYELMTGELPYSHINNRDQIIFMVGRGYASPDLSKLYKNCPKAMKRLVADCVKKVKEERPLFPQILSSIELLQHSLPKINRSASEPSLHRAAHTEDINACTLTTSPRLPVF
Method: MEK1 was diluted to 4 nM, and nickel chelate donor beads and glutathione acceptor beads were diluted to 80 μg/mL. CRAF was diluted to a top concentration of 160 nM, which was subsequently diluted to 80, 40, 20, 10, 5, 2.5, 1.25, and 0.625 nM through 1:2 serial dilution.
Exemplary MEK inhibitor compounds (0, 0.01, 0.1, or 1 μM) were added to a 384-AlphaPlate (PerkinElmer, 6008350) by a digital liquid dispenser (Tecan D300e) based on a total volume of 20 μL reaction mixture.
5 μL 4×MEK1 stock solution was added to wells A1-P20 by multichannel pipettes. The plate was sealed with clear olefin sealing tape (Thermo Scientific, 232701), centrifuged at 1000 rpm for 1 minute, and incubated at room temperature for 30 minutes.
5 μL 4×CRAF stock solution at different concentrations or 5 μL or 10 μL AlphaLISA buffer was added by multichannel pipettes. The plate was sealed, centrifuged at 1000 rpm for 1 minute, and incubated at room temperature for 60 minutes.
5 μL 4×glutathione acceptor beads were first added to all wells by multichannel pipettes. The ambient light was subsequently adjusted to <100 lux (light meter) before adding 5 μL 4×nickel chelate donor beads to the same wells. From this step on, the plate was covered with a black plate cover, centrifuged at 1000 rpm for 1 minute, and incubated at room temperature for 60 minutes.
Data were collected on a PHERAStar FSX (BMG LABTECH) using the AlphaLISA module (excitation: 680 nm, emission: 615 nm), with a gain of 3600. The excitation time was 0.30 seconds, and data collection started after a 0.04-second delay for a total integration time of 0.60 seconds.
The individual AlphaLISA counts of wells with exemplary MEK inhibitor compound were divided by the average AlphaLISA counts of wells without compound to obtain AlphaLISA signal/background ratio (S/B). The dissociation constant (KD) of MEK1-CRAF was calculated using nonlinear regression curve fit in GraphPad PRISM® 9.0 software.

pERK HCT-116 (G13D) = pERK HCT-116 (G13D) ICW (4 hour); format: cell-based; settings: Homo sapiens, read-out: pERK HCT-116 (G13D) ICW (4 hour): Average IC50 (nM)
[2] = system: Phosphorylation of MEK1/2 in AsPC1 cells; assay: 4 hour pMEK1/2 MSD Assay; format: cell-based; settings: Homo sapiens; AsPC1, 4 hours; read-out: pMEK IC50
Method: AsPC1 cells were seeded at 10,000 cells/well overnight in 96-well plates, then treated with a 12-point dose response of compounds (Starting dose of 1000 nM and 3-fold dilution) for 4 hours. AsPC1 cells are a K-Ras mutant (G12D) pancreatic cancer cell line. Phosphorylation of MEK1/2 on residues Ser217 and Ser221 were detected using a MesoScale Discovery (MSD) assay (MSD Cat #K15129D-2). MEK1/2 phosphorylation levels were normalized to total MEK1/2 protein detected in each well on the same MSD plate. IC50 values were determined by fitting a variable slope, four parameters curve to the compound concentration to normalized Phospho-MEK1/2 relationship.

Question: Which results are given for CNS(=O)(=O)Nc1cccc(Oc2c(C(=O)NC3CC3)c(Nc3ccc(I)cc3F)n(C)c(=O)c2C)c1OC [Compound I-1]?
Answer: AUC(0-inf) (Pharmacokinetics in rat): 107 ng·h/mL; AUC(0-t) (Pharmacokinetics in rat): 100 ng·h/mL; clearance (Pharmacokinetics in rat): 31.9 mL/min/kg; half-life (Pharmacokinetics in rat): 2.4 h; Vd (Pharmacokinetics in rat; read-out: Vdss): 4.2 L/kg; AUC(0-inf) ([1]; IV, 2 mg/kg): 455 ng·h/mL; AUC(0-t) ([1]; IV, 2 mg/kg): 452 ng·h/mL; clearance ([1]; IV, 2 mg/kg): 74.9 mL/min/kg; half-life ([1]; IV, 2 mg/kg): 1.67 h; Vd ([1]; IV, 2 mg/kg, read-out: Vdss): 3.2 L/kg; AUC(0-inf) ([1]; PO, 5 mg/kg): 635 ng·h/mL; AUC(0-t) ([1]; PO, 5 mg/kg): 614 ng·h/mL; Cmax ([1]; PO, 5 mg/kg): 432 ng/mL; Tmax ([1]; PO, 5 mg/kg): 0.4 h; half-life ([1]; PO, 5 mg/kg): 11.6 h; IC50 (uMEK/BRAF): < 100 nM; KD Ratio (mean), compound to DMSO (MEK1-CRAF complex; compound 0.01 μM): 0.80; KD Ratio (mean), compound to DMSO (MEK1-CRAF complex; compound 0.1 μM): 0.55; KD Ratio (mean), compound to DMSO (MEK1-CRAF complex; compound 1 μM): 0.42; IC50 (pERK HCT-116 (G13D)): < 100 nM; IC50 [2]: < 100 nM
